PMC10459552, “Cardiomyocyte-Targeting Peptide to Deliver Amiodarone” (Pharmaceutics, 2023)
Structures can show the parent of a compound that is named as a salt.

What was measured:
guinea pig hearts = experiment: Optical mapping of voltage and Ca2+ in Langendorff-perfused hearts after daily intraperitoneal injection; conditions: same dosing; for AP and CaT durations compared to control hearts: recovery to 90% of baseline, Figure 4c, e
Method: At the end of the study, the GPs were euthanized, the hearts excised and perfused on a Langendorff apparatus with Tyrode’s solution containing (in mM): NaCl (130), KCl (4), MgSO4 (1.2), NaHCO3 (25), Glucose (5), CaCl2 (1.25), and Mannitol (45), and gassed with 95% O2 and 5% CO2, with a pH of 7.0, at 37 °C. The hearts were placed in a custom-designed chamber to subdue the motion artifacts, along with a 15 min blebbistatin (5 µM) in perfusate to minimize the contractions. Bolus injections of voltage (RH237, 25 µL of 2 mg/mL dimethyl sulfoxide (DMSO)) and Ca^2+-indicator dye (Rhod-2/AM, 200 µL of 2 mg/mL DMSO) were injected in the air trap above the aortic cannula. Fluorescence from the epicardium was collected with a camera lens, split with a 570 nm dichroic mirror and focused on two CMOS cameras (Sci-Media UltimaOne, Costa Mesa, CA, USA) capturing the fluorescence emission at 570–595 nm for the cytosolic Ca^2+ and 610–750 nm wavelengths for the voltage, as described in detail previously [33]. After resting sinus rhythm image acquisition, the hearts were paced at 250 ms with programmed stimulation to measure and compare the conduction velocity and transient duration (90%) of various treatment groups.
Adult male GPs (250–350 g) were injected intraperitoneally with amiodarone (80 mg/kg; n = 4) daily for 7 days, CTP–amio (26.3 mg/kg; n = 4) for 5 days, or CTP alone (17.8 mg/kg; n = 4) for 5 days and compared to vehicle-only injected GPs (n = 10). At the end of the injection period, the GPs were euthanized, and their hearts were excised and perfused in a Langendorf apparatus. The hearts were labeled with a voltage-sensitive dye (RH 237) and a Ca^2+ indicator (Rhod-2/AM) with a bolus injection in the perfusate in the air trap above the aortic cannula. Fluorescence images of the heart were focused on 2 CMOS cameras, one to detect voltage and the other intracellular free Ca^2+. The heart rate, action potentials (APs), and intracellular free-Ca^2+ transients (CaT) were measured from 10,000 pixels of the voltage and Ca^2+ CMOS cameras (Supplemental Figure S1). Durations of the APs and CaTs were calculated from the first derivative of the rise of the signals to their recovery to 90% of the baseline.

[1] = tested on: guinea pig hearts (gene expression); experiment: RNA sequencing of treated hearts versus control hearts; assay type: in vivo; conditions: CTP-treated hearts versus controls
Method: Libraries were generated with the Illumina Stranded mRNA Library Prep kit (Illumina: 20040534, San Diego, CA, USA), according to the manufacturer’s instructions. RNA was assessed for quality using a Total RNA 15 nt kit (Agilent: DNF-471-33) on an Advanced Analytical 5300 Fragment Analyzer. The RNA concentration was quantified with a Qubit BR RNA assay kit (Invitrogen: Q10211) on a Qubit 4 (Invitrogen: Q33238). Briefly, 50 ng of input RNA was used for each sample. Following adapter ligation, 15 cycles of indexing PCR were completed, using IDT for Illumina RNA UD Indexes (Illumina: 20040553). Library assessment and quantification were performed using Qubit 1x HS DNA (Invitrogen: Q33231) on a Qubit 4 fluorometer and a HS NGS Fragment kit (Agilent: DNF-474-1000). […] The pooled library was loaded at 750 pM, and sequencing was carried out with read lengths of 2 × 101 bp, with an average of ~40 million reads per sample. […]
The raw RNA sequencing (RNA-Seq) paired-end reads for the guinea pig (GP) samples were processed through the Mayo RNA-Seq bioinformatics pipeline, RapMap version 1.0.0. Briefly, the raw reads were trimmed with a base quality cutoff of Phred score Q30 using Trimmomatic. […]
Using the gene-level counts from RapMap, genes differentially expressed between the control and treated groups were assessed using the bioinformatics package edgeR 2.6.2 [37]. […]

mice = conditions: biodistribution studies; cited from earlier work
From the text: The ability of cationic or hydrophobic cell-penetrating peptides to transduce a wide variety of tissue types in vivo limits their clinical utility because of their lack of cell specificity, leading to a higher chance of off-target adverse side effects. Phage display using libraries of various lengths and various bacteriophage strains have been successfully utilized to identify tissue-specific penetrating peptides. In our prior work, we employed a combinatorial in vitro and in vivo M13 phage display methodology to identify a 12-amino-acid, synthetic, mildly bas ...

Compound | heart rate during sinus rhythm compared to control hearts (guinea pig hearts; Figure 4a) | conduction velocity (CV) of the APs and CaT compared to control hearts (guinea pig hearts; Figure 4b, d) | calcium transients compared to the controls (guinea pig hearts; Rhod-2/AM fluorescence) | AP and CaT durations compared to control hearts (guinea pig hearts) | expression of α-adrenergic receptors [1] | expression of β-adrenergic receptors [1] | crossing of the blood–brain barrier (mice) | route of excretion (mice)
CCCCc1oc2ccccc2c1C(=O)c1cc(I)c(OCCN(CC)CC)c(I)c1 [amiodarone, Amiodarone hydrochloride] | significantly decreased | decreased | significantly decreased | increased | – | – | – | –
NH2-APWHLSSQYSRT-COOH (H-APWHLSSQYSRT-OH) [CTP] | – | – | – | decreased | upregulation | downregulation | does not cross | predominantly by a renal followed by a hepatobiliary mechanism
